{"source": "patent US4826845A", "about": "“3(2H)-pyridazinones and pharmaceutical compositions thereof” (Richter Gedeon Vegyeszeti Gyar T.R., priority 1985, dated 1989)", "key": {"[1]": {"test_system": "pressor (blood pressure increasing) effect of epinephrine", "experiment": "Inhibition of the pressor effect of epinephrine", "conditions": "in vivo"}, "anaesthetized cats": {"test_system": "anaesthetized cats", "experiment": "Hypotensive and heart rate effects on anaesthetized cats after intravenous or intraduodenal administration", "assay_type": "in vivo, cat", "procedure": "The cats were anaesthetized by intraperitoneally administering 35 mg/kg of sodium pentobarbital while promoting the spontaneous respiration by the introduction of a trachea cannula. On one side, the femoral vessels are cannulated. The cannula introduced to the femoral vein was used for the intravenous administration of the compounds to be tested. The arterial cannula was connected with a Hellige electromanometer by using a Statham P 23 Db transducer for measuring the mean arterial pressure. The heart rate was continuously registered by means of a cardiotachometer triggered by the pulse wave sign of the electromanometer.\nIn an other series of these experiments, the compound to be tested was administered through a duodenal tube. The compound of Example 3 (or 12) was used in intravenous doses of 0.5, 1.0 and 5.0 mg/kg as well as in intraduodenal doses of 1.25, 5.0 and 10.0 mg/kg."}, "Acute toxicity in mice": {"experiment": "Acute toxicity in mice", "conditions": "mouse, in vivo", "from_the_text": "Male and female CFY rats and mice were used."}}, "note": "Structures can show the parent of a compound that is named as a salt. Where two headings read alike, the source gives them in different places.", "data": [{"smiles": "O=c1cccnn1CCCNCC1COc2ccccc2O1", "note": "(centres unmarked) [Example 3 (or 12), 2-[3-(benzo[1,4]dioxan-2-yl-methylamino)-1-propyl]-3(2H)-pyridazinone hydrochloride]", "values": [{"measurement": "inhibition of the pressor effect of epinephrine (in words)", "setting": "[1]", "result": "significant inhibition"}, {"measurement": "duration of hypotension", "setting": "anaesthetized cats; 0.5 mg/kg i.v.", "result": 60, "unit": "min"}, {"measurement": "half-life of hypotension", "setting": "anaesthetized cats; 0.5 mg/kg i.v.", "result": "about 30 minutes"}, {"measurement": "heart rate effect (in words)", "setting": "anaesthetized cats; 0.5 mg/kg i.v.", "result": "accompanied by bradycardia"}, {"measurement": "hypotension", "setting": "anaesthetized cats; 0.5 mg/kg i.v.", "result": 50, "unit": "%"}, {"measurement": "maximum of the hypotension, intravenous versus intraduodenal", "setting": "anaesthetized cats; 1.0 mg/kg i.v. versus 1.25 mg/kg intraduodenal", "result": "nearly equal"}, {"measurement": "decrease in the blood pressure", "setting": "anaesthetized cats; 1.25 mg/kg intraduodenal", "result": 50, "unit": "%"}, {"measurement": "duration of hypotension (detected up to)", "setting": "anaesthetized cats; 1.25 mg/kg intraduodenal", "result": "up to 2 hours"}, {"measurement": "time of development of hypotension", "setting": "anaesthetized cats; 1.25 mg/kg intraduodenal", "result": "≤ 15", "unit": "min"}, {"measurement": "heart rate effect (in words)", "setting": "anaesthetized cats; intraduodenal", "result": "significantly diminished"}, {"measurement": "LD50 at 336 h", "setting": "Acute toxicity in mice; ip, female, i.p., read-out: LD50 i.p.", "result": 160, "unit": "mg/kg"}, {"measurement": "LD50 at 336 h", "setting": "Acute toxicity in mice; ip, male, i.p., read-out: LD50 i.p.", "result": 160, "unit": "mg/kg"}, {"measurement": "LD50 at 336 h", "setting": "Acute toxicity in mice; po, female, p.o., read-out: LD50 p.o.", "result": 200, "unit": "mg/kg"}, {"measurement": "LD50 at 336 h", "setting": "Acute toxicity in mice; po, male, p.o., read-out: LD50 p.o.", "result": 300, "unit": "mg/kg"}]}]}
